Measurements reported in patent US20160184795A1, “METHODS AND SYSTEMS FOR […]” (SHELL OIL COMPANY, priority 2014, published 2016).
Values joined by “and” are separate entries in the source; they are usually repeats but may differ in a detail not shown here. Equal values may be shown once.

Experiment: Solubility of alkylphenol in water at digestion conditions
Format: physicochemical
Conditions: 240 C, 15 bar N2, 30 g xylenol + 30 g deionized water, phases separated hot, consecutive samples via bottom dip tube
Source text: Stirring was stopped, and phases were allowed to separate while hot, before sampling of all reactor contents via consecutive withdrawal of samples via a bottom dip tube.

For Cc1cccc(C)c1O [xylenol, 2,6-dimethylphenol], the “weight fraction of xylenol in water, individual samples withdrawn” value was 18.6 weight percent and 26 weight percent and 32 weight percent.
